One assay has as its target T1, human GCS (glucosylceramide synthase) (Homo sapiens, UniProt Q16739).
T1 construct: made in house; host or cells: Expi293F cells (transient expression; microsome fraction)
T1 sequence (Q16739 1-394): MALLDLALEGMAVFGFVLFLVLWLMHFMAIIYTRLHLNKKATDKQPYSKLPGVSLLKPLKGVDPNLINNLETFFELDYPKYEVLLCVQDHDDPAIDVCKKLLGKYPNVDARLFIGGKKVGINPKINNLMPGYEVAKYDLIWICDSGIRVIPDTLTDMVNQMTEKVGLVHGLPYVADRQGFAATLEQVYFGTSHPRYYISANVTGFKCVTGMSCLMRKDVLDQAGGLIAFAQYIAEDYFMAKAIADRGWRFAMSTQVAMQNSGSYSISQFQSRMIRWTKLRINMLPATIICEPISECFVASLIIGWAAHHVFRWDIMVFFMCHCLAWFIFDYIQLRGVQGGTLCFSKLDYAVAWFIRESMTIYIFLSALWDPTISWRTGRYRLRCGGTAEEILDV
Description: Glucosylceramide Synthase (GCS) Assay. The format is biochemical. Conditions: test compound 10 μM; microsome fraction of Expi293F cells expressing human GCS; 1.7 μM UDP-glucose, 3 μM C8 ceramide; room temperature 60 min; C8 glucosylceramide by Rapidfire MS/MS. As to the method:
In enzyme assay, a microsome fraction obtained by transient expression by Expi293F™ cells (catalog number: A14527, Thermo Fisher Scientific) was used as a glucosylceramide synthase source. Liposomal C8 ceramide and UDP-glucose were used as substrates. For each substrate concentration, 1.7 μM UDP-glucose, which is equal to the Km value, and 3 μM C8 ceramide were used. After the enzymatic reaction, the analysis was performed with Rapidfire MS/MS (API-4000™, SCIEX), and C8 glucosylceramide was quantified to evaluate the inhibitory activity of the test compound against glucosylceramide synthase activity.
PcDNA3.3TOPO vector (catalog number: K830001, Thermo Fisher Scientific) into which the human GCS gene was inserted was introduced into Expi293F™ Cells (catalog number: A14527, Thermo Fisher Scientific) by using ExpiFectamine™ 293 Transfection Kit (catalog number: A14525, Thermo Fisher Scientific). The cultured cells were dissolved in D-PBS (catalog number: 048-29805, Fuji Film Wako Pure Chemical Industries, Ltd.) containing 1 mM PMSF, and the solution was allowed to stand on ice for 30 minutes, and then subjected to cell disruption (homogenized). The disruption solution was centrifuged at 10,000×g for 20 minutes at 4° C., and the obtained supernatant was centrifuged at 142,400×g for 60 minutes at 4° C. The obtained precipitate was resuspended in a D-PBS solution containing 1 mM PMSF, and homogenized again to prepare as a microsome fraction. Protein quantification was performed by the CBB method.
A 1 mM compound solution prepared by dissolving the test compound in DMSO was added to a 384-well plate by 100 nL so that the final concentration of the test compound was 10 μM. Next, a substrate solution consisting of 3.4 μM UDP-glucose and 6 μM C8 ceramide was added by 5 μL, followed by an enzyme solution consisting of a 25 μg/mL microsome fraction by 5 μL. C8 ceramide was prepared from liposomes composed of 15 mol % C8 ceramide and 85 mol % dioleoyl phosphatidylcholine (1,2-dioleoyl-sn-glycero-3-phosphocholine: DOPC). The enzymatic reaction was carried out in a solution consisting of 20 mM tris-hydrochloric acid buffer (pH 7.5), 0.01% Tween 20, 0.01% bovine serum albumin and 1 mM dithiothreitol at room temperature for 60 min. Then, a solution consisting of 75% isopropanol and 1% formic acid containing 0.25 μM N-Octadecanoyl-D35-psichosine (catalog number: 1914, Matreya) as an internal standard substance was added by 60 μL to stop the enzymatic reaction. 5 μL of the centrifugal supernatant of the obtained reaction product was analyzed by Rapidfire MS/MS (Agilent Technologies) using API-4000™ (SCIEX), and the C8 glucosylceramide was quantified to evaluate the inhibitory activity of the test compound against the glucosylceramide synthase activity. The inhibitory activity of the test compound was evaluated when the C8 glucosylceramide level in the enzyme-free solution was considered as 100% inhibitory and the enzyme activity of the DMSO group in the absence of the compound was considered as 0% inhibitory.
`O=C(Nc1ccc(C(O)C2CC2)nc1)c1cccn(-c2ccc(F)cc2OCC(F)(F)F)c1=O` (single isomer, unassigned) [Example 116, (R or S)-N-{6-[cyclopropyl(hydroxy)methyl]pyridin-3-yl}-1-[4-fluoro-2-(2,2,2-trifluoroethoxy)phenyl]-2-oxo-1,2-dihydropyridine-3-carboxamide]: the “GCS enzyme inhibitory rate at 10 μM (%)” value came out at 97%.

The assay is the same for the next values; noted with them: test compound 10 μM; microsome fraction of Expi293F cells expressing human GCS; 1.7 μM UDP-glucose, 3 μM C8 ceramide; room temperature 60 min; C8 glucosylceramide by Rapidfire MS/MS; read-out: GCS enzyme inhibitory rate at 10 μM (%).
As for `CC(=O)c1cc(C(=O)Nc2ccc(OC(F)F)cc2)c(=O)n(-c2ccccc2OCC(F)(F)F)n1` [Example 197, 6-acetyl-N-[4-(difluoromethoxy)phenyl]-3-oxo-2-[2-(2,2,2-trifluoroethoxy)phenyl]-2,3-dihydropyridazine-4-carboxamide], the inhibition at 10 µM came out at 99%.

`Cc1cc(C(=O)Nc2ccc(C(C)(C)O)cc2Cl)c(=O)n(-c2ccccc2OCC(F)F)n1` [Example 149, N-[2-chloro-4-(2-hydroxypropan-2-yl)phenyl]-2-[2-(2,2-difluoroethoxy)phenyl]-6-methyl-3-oxo-2,3-dihydropyridazine-4-carboxamide]: the inhibition at 10 µM turned out to be 100%.

In the case of `COCCOc1cc(F)ccc1-n1cccc(C(=O)Nc2ccc(OCC(F)(F)F)nc2)c1=O` [Example 27, 1-[4-fluoro-2-(2-methoxyethoxy)phenyl]-2-oxo-N-[6-(2,2,2-trifluoroethoxy)pyridin-3-yl]-1,2-dihydropyridine-3-carboxamide], the inhibition at 10 µM is 75%.

On to `O=C(Nc1ccc(C(O)C2CC2)nc1)c1cccn(-c2ccccc2OCC(F)(F)F)c1=O` (racemic) [Example 76, rac-N-{6-[cyclopropyl(hydroxy)methyl]pyridin-3-yl}-2-oxo-1-[2-(2,2,2-trifluproethoxy)phenyl]-1,2-dihydropyridine-3-carboxamide], for which the inhibition at 10 µM worked out at 98%.

As to `O=C(Nc1ccc(C2CC2)cn1)c1cccn(-c2ccccc2OCC(F)(F)F)c1=O` [Example 21, N-(5-cyclopropylpyridin-2-yl)-2-oxo-1-[2-(2,2,2-trifluoroethoxy)phenyl]-1,2-dihydropyridine-3-carboxamide], the inhibition at 10 µM turned out to be 99%.

For `Cc1cc(C(=O)Nc2ccc(C(O)(C(F)F)C(F)F)cc2)c(=O)n(-c2ccccc2OCC(F)F)n1` [Example 152, 2-[2-(2,2-difluoroethoxy)phenyl]-6-methyl-3-oxo-N-[4-(1,1,3,3-tetrafluoro-2-hydroxypropan-2-yl)phenyl]-2,3-dihydropyridazine-4-carboxamide], the inhibition at 10 µM was found to be 100%.

In the case of `CC(C)(O)COc1cc(F)ccc1-n1cccc(C(=O)Nc2ccc(C(O)(C(F)(F)F)C(F)(F)F)cc2)c1=O` [Example 105, 1-[4-fluoro-2-(2-hydroxy-2-methylpropoxy)phenyl]-N-[4-(1,1,1,3,3,3-hexafluoro-2-hydroxypropan-2-yl)phenyl]-2-oxo-1,2-dihydropyridine-3-carboxamide], the inhibition at 10 µM worked out at 99%.

As to `CC(O)c1cc(C(=O)Nc2ccc(OC(F)F)cc2)c(=O)n(-c2ccccc2OCC(F)(F)F)n1` (racemic) [Example 199, rac-N-[4-(difluoromethoxy)phenyl]-6-(1-hydroxyethyl)-3-oxo-2-[2-(2,2,2-trifluoroethoxy)phenyl]-2,3-dihydropyridazine-4-carboxamide], the inhibition at 10 µM stood at 100%.

With `O=C(Nc1ccc(OCC(F)(F)F)nc1)c1ccnn(-c2ccc(F)cc2OCC(F)(F)F)c1=O` [Example 29, 2-[4-fluoro-2-(2,2,2-trifluoroethoxy)phenyl]-3-oxo-N-[6-(2,2,2-trifluoroethoxy)pyridin-3-yl]-2,3-dihydropyridazine-4-carboxamide], the inhibition at 10 µM came out at 97%.

Take `CC(F)(F)COc1ccccc1-n1cccc(C(=O)Nc2ccc(C(C)(C)O)cc2)c1=O` [Example 99, 1-[2-(2,2-difluoropropoxy)phenyl]-N-[4-(2-hydroxypropan-2-yl)phenyl]-2-oxo-1,2-dihydropyridine-3-carboxamide]: the inhibition at 10 µM turned out to be 99%.

Consider `O=C(Nc1ccc(C2(O)CCC2)cc1)c1cccn(-c2ccccc2OCC(F)(F)F)c1=O` [Example 96, N-[4-(1-hydroxycyclobutyl)phenyl]-2-oxo-1-[2-(2,2,2-trifluoroethoxy)phenyl]-1,2-dihydropyridine-3-carboxamide], for which the inhibition at 10 µM was found to be 100%.

For `O=C(Nc1ccc(C(O)(C(F)F)C(F)F)cc1)c1cn(C2CCOC2)nc(-c2ccccc2OCC(F)F)c1=O` (racemic) [Example 196, rac-6-[2-(2,2-difluoroethoxy)phenyl]-5-oxo-2-(oxolan-3-yl)-N-[4-(1,1,3,3-tetrafluoro-2-hydroxypropan-2-yl)phenyl]-2,5-dihydropyridazine-4-carboxamide], the inhibition at 10 µM is 100%.

In the case of `O=C(Nc1ccc(C(O)(C(F)F)C(F)F)nc1)c1ccnn(-c2ccc(F)cc2OCC(F)(F)F)c1=O` [Example 117, 2-[4-fluoro-2-(2,2,2-trifluoroethoxy)phenyl]-3-oxo-N-[6-(1,1,3,3-tetrafluoro-2-hydroxypropan-2-yl)pyridin-3-yl]-2,3-dihydropyridazine-4-carboxamide], the inhibition at 10 µM came out at 100%.

Consider `Cc1cc(C(=O)Nc2ccc(C(C)(C)O)cc2C#N)c(=O)n(-c2ccccc2OCC(F)F)n1` [Example 154, N-[2-cyano-4-(2-hydroxypropan-2-yl)phenyl]-2-[2-(2,2-difluoroethoxy)phenyl]-6-methyl-3-oxo-2,3-dihydropyridazine-4-carboxamide], for which the inhibition at 10 µM came to 83%.

Take `O=C(Nc1ccc(Oc2ccccc2)cc1)c1cccn(-c2ccccc2N2CCOCC2)c1=O` [Example 4, 1-[2-(morpholin-4-yl)phenyl]-2-oxo-N-(4-phenoxyphenyl)-1,2-dihydropyridine-3-carboxamide]: the inhibition at 10 µM stood at 93%.

`O=C(Nc1ccc(COCC(F)(F)F)nc1)c1cccn(-c2ccccc2OCC(F)(F)F)c1=O` [Example 74, 2-oxo-N-{6-[(2,2,2-trifluoroethoxy)methyl]pyridin-3-yl}-1-[2-(2,2,2-trifluoroethoxy)phenyl]-1,2-dihydropyridine-3-carboxamide]: the inhibition at 10 µM was determined as 99%.

For the compound `O=C(Nc1ccc(C(O)(C(F)(F)F)C(F)(F)F)cc1)c1cccn(-c2ccccc2OCC(F)(F)F)c1=O` [Example 89, N-[4-(1,1,1,3,3,3-hexafluoro-2-hydroxypropan-2-yl)phenyl]-2-oxo-1-[2-(2,2,2-trifluoroethoxy)phenyl]-1,2-dihydropyridine-3-carboxamide], the inhibition at 10 µM was found to be 100%.

For `Cc1cc(C(=O)Nc2ccc(C(C)O)cc2)c(=O)n(-c2ccccc2OCC(F)F)n1` (racemic) [Example 139, rac-2-[2-(2,2-difluoroethoxy)phenyl]-N-[4-(1-hydroxyethyl)phenyl]-6-methyl-3-oxo-2,3-dihydropyridazine-4-carboxamide], the inhibition at 10 µM amounted to 99%.

Consider `Cc1cc(C(=O)Nc2ccc(C(O)(C(F)F)C(F)F)nc2)c(=O)n(-c2ccccc2OCC(F)F)n1` [Example 109, 2-[2-(2,2-difluoroethoxy)phenyl]-6-methyl-3-oxo-N-[6-(1,1,3,3-tetrafluoro-2-hydroxypropan-2-yl)pyridin-3-yl]-2,3-dihydropyridazine-4-carboxamide], for which the inhibition at 10 µM came out at 100%.

The record behind these values is patent publication US20220289679A1, “HETEROCYCLIC COMPOUND” (Takeda Pharmaceutical Company Limited, priority 2019, published 2022).
